In US12391679B2, “Benzamide-substituted bicyclic imidazo- and pyrazolo-fused -pyridine, -pyrimide, and -pyridazine compounds for treatment of inflammatory diseases” (ONCO3R Therapeutics BV, priority 2019, dated 2025):

Legend:
[1] = test system: LPS-induced TNFα in monocyte-derived macrophages; test: MdM assay: LPS-triggered TNFα (ELISA); assay type: cell-based, human; settings: Macrophage; human MdM; LPS 200 ng/mL; supernatant after 20 h; inhibition of TNFα; read-out: TNFα EC50
Outline: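 TNFα secretion quantified by streptavidin-HRP/luminol sandwich ELISA in supernatants collected 20 h after LPS (200 ng/mL). Macrophages derived from magnetically isolated human CD14+ monocytes were used at day 10, with compound added 1 h before LPS; final DMSO 0.2%.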

[2] = target: T1, SIK2 (Homo sapiens, UniProt Q9H0K1); test: ADP-Glo kinase assay, SIK2; assay type: biochemical
T1 construct: purchased ThermoFisher Scientific PV4792
T1 sequence (Q9H0K1 whole entry): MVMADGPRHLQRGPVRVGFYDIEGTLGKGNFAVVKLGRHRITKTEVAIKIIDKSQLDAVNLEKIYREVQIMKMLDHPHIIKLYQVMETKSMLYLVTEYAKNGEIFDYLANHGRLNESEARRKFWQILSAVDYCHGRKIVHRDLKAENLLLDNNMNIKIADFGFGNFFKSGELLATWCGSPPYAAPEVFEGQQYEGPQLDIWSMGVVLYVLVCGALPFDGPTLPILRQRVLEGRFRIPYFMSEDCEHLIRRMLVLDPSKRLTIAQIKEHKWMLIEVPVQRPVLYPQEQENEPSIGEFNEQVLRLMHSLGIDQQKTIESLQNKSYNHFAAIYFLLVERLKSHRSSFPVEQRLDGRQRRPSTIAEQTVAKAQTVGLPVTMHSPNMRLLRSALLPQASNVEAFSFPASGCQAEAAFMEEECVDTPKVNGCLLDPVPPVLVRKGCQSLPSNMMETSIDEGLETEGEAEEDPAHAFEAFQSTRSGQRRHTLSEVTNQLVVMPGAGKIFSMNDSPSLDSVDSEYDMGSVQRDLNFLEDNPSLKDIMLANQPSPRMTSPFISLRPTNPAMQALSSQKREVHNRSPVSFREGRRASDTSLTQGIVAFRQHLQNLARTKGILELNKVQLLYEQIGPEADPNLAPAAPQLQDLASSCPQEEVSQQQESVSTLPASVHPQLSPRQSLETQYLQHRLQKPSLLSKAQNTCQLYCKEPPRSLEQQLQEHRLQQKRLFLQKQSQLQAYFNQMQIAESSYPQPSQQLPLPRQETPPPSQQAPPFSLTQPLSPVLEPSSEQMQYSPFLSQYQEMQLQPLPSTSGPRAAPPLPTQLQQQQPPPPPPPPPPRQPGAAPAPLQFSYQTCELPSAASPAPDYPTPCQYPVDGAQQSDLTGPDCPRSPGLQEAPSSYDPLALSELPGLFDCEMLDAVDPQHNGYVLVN
Outline: (§1)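 ADP-Glo format, luminescent. Room-temperature kinase reaction lasting 120 min, followed by ATP removal (40 min) and ADP detection (30 min); 10 μM staurosporine serves as full-inhibition control, 1% DMSO as uninhibited control.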

[3] = target: T2, SIK1 (Homo sapiens, UniProt P57059); test: ADP-Glo kinase assay, SIK1; assay type: biochemical
T2 construct: purchased Carna Biosciences 02-131
T2 sequence (P57059 whole entry): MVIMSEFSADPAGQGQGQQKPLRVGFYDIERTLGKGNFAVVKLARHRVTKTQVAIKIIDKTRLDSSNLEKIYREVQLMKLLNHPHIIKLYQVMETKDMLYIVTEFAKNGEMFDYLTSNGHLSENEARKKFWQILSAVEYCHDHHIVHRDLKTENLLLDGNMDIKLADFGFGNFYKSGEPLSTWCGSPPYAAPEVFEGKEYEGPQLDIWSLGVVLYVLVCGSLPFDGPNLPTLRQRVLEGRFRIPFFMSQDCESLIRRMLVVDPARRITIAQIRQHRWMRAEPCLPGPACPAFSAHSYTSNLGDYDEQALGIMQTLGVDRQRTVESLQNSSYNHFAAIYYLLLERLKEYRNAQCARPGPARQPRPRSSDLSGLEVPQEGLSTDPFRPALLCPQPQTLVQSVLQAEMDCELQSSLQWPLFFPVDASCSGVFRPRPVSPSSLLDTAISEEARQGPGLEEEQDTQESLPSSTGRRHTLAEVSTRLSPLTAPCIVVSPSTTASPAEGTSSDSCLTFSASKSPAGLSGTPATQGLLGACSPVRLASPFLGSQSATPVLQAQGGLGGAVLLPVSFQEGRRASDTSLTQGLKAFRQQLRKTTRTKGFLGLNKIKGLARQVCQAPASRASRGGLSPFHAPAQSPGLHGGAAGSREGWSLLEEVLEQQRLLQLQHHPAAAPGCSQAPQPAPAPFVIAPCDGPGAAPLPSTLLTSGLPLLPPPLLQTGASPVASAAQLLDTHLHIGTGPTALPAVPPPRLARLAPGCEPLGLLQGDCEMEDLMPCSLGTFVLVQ
Outline: as §1

SMILES	EC50 [1]	IC50 [2]	IC50 [3]
COc1cc(-c2cnn3cc(C(C)(C)O)ccc23)cc(OC(F)F)c1C(=O)N[C@@H]1C[C@@H]1F [Cpd 227, 2-(difluoromethoxy)-N-[(1R,2S)-2-fluorocyclopropyl]-4-[6-(1-hydroxy-1-methyl-ethyl)pyrazolo[1,5-a]pyridin-3-yl]-6-methoxy-benzamide]	100 to 1000 nM	100 to 500 nM	> 500 nM
COc1cc(-c2cnc3cc(C(C)O)ccn23)cc(OC(F)F)c1C(=O)NC1CC1 (stereo not drawn) [Cpd 140, N-cyclopropyl-2-(difluoromethoxy)-4-[7-(1-hydroxyethyl)imidazo[1,2-a]pyridin-3-yl]-6-methoxy-benzamide]	1000 to 5000 nM	100 to 500 nM	100 to 500 nM
COc1cc(-c2cnn3cc(C(C)(C)COS(C)(=O)=O)ccc23)cc(OC(F)F)c1C(=O)N[C@@H]1C[C@@H]1F [Cpd 267, [2-[3-[3-(difluoromethoxy)-4-[[(1R,2S)-2-fluorocyclopropyl]carbamoyl]-5-methoxy-phenyl]pyrazolo[1,5-a]pyridin-6-yl]-2-methyl-propyl]methanesulfonate]	100 to 1000 nM	> 500 nM	> 500 nM
COc1cc(-c2cnc3cc(C4(C#N)CCOC4)ccn23)cc(OC(F)F)c1C(=O)NC1CC1 (stereo not drawn) [Cpd 123, 4-[7-(3-cyanotetrahydrofuran-3-yl)imidazo[1,2-a]pyridin-3-yl]-N-cyclopropyl-2-(difluoromethoxy)-6-methoxy-benzamide]	1000 to 5000 nM	> 500 nM	> 500 nM
COc1cc(-c2cnc3cc(C4COC4)ccn23)cc(OC(F)F)c1C(=O)NC1CC1 [Cpd 174, N-cyclopropyl-2-(difluoromethoxy)-6-methoxy-4-[7-(oxetan-3-yl)imidazo[1,2-a]pyridin-3-yl]benzamide]	100 to 1000 nM	10 to 100 nM	100 to 500 nM
COC(=O)C1(c2ccn3c(-c4cc(OC)c(C(=O)NC5CC5)c(OC(F)F)c4)cnc3c2)CC1 [Cpd 113, methyl 1-[3-[4-(cyclopropylcarbamoyl)-3-(difluoromethoxy)-5-methoxy-phenyl]imidazo[1,2-a]pyridin-7-yl]cyclopropanecarboxylate]	100 to 1000 nM	> 500 nM	> 500 nM

Now from value to compound:

EC50 [1]	IC50 [2]	IC50 [3]	SMILES
100 to 1000 nM	> 500 nM	> 500 nM	COc1cc(-c2cnc3cc(C4(C#N)COC4)ccn23)cc(OC(F)F)c1C(=O)N[C@@H]1C[C@@H]1F [Cpd 130, 4-[7-(3-cyanooxetan-3-yl)imidazo[1,2-a]pyridin-3-yl]-2-(difluoromethoxy)-N-[(1R,2S)-2-fluorocyclopropyl]-6-methoxy-benzamide]
100 to 1000 nM	> 500 nM	> 500 nM	COc1cc(-c2cnc3cc(C(C)(C)N)ccn23)cc(OC(F)F)c1C(=O)NC1CC1 [Cpd 106, 4-[7-(1-amino-1-methyl-ethyl)imidazo[1,2-a]pyridin-3-yl]-N-cyclopropyl-2-(difluoromethoxy)-6-methoxy-benzamide]
100 to 1000 nM	> 500 nM	> 500 nM	COc1cc(-c2cnn3cc(C(C)(C)C#N)cnc23)cc(OC(F)F)c1C(=O)N[C@@H]1C[C@@H]1F [Cpd 231, 4-[6-(1-cyano-1-methyl-ethyl)pyrazolo[1,5-a]pyrimidin-3-yl]-2-(difluoromethoxy)-N-[(1R,2S)-2-fluorocyclopropyl]-6-methoxy-benzamide]
1000 to 5000 nM	100 to 500 nM	> 500 nM	COc1cc(-c2cnc3cc(C(O)CC#N)ccn23)cc(OC(F)F)c1C(=O)NC1CC1 (stereo not drawn) [Cpd 175, 4-[7-(2-cyano-1-hydroxy-ethyl)imidazo[1,2-a]pyridin-3-yl]-N-cyclopropyl-2-(difluoromethoxy)-6-methoxy-benzamide]
1000 to 5000 nM	10 to 100 nM	100 to 500 nM	COc1cc(-c2cnc3cc(C4CN(C(C)=O)C4)ccn23)cc(OC(F)F)c1C(=O)NC1CC1 [Cpd 63, 4-[7-(1-acetylazetidin-3-yl)imidazo[1,2-a]pyridin-3-yl]-N-cyclopropyl-2-(difluoromethoxy)-6-methoxy-benzamide]
